Key:
[1] = target: T1, G12D-mutant human KRAS (amino acid residues 1-188) (Homo sapiens, UniProt P01116, G12D); experiment: KRAS Binding Disruption Assay (AlphaScreen; biotinylated KRpep-2d analogue or RAF1-RBD), G12D; conditions: KRAS G12D; geometric mean; read-out: KRAS GMean IC50 (uM) MUTATION: G12D
T1 construct: G12D or G12C-mutant human KRAS (amino acid residues 1-188) with FLAG tag; made in house; host or cells: E. coli
In short: (§1)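 Mutant KRAS (5-20 nM) incubated 1 h at 25° C with test compound and 5-20 nM biotinylated KRpep-2d analogue or RAF1-RBD in 20 mM HEPES pH 7.5, 100 mM NaCl, 5 mM MgCl2, 0.01% Tween-20, 0.01% BSA.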

[2] = target: T2, G12C-mutant human KRAS (amino acid residues 1-188) (Homo sapiens, UniProt P01116, G12C); experiment: KRAS Binding Disruption Assay (AlphaScreen; biotinylated KRpep-2d analogue or RAF1-RBD), G12C; conditions: geometric mean, read-out: KRAS GMean IC50 (uM) MUTATION: G12C
T2 construct: G12D or G12C-mutant human KRAS (amino acid residues 1-188) with FLAG tag; made in house; host or cells: E. coli
In short: as §1

[3] = target: T3, G12V-mutant human KRAS (amino acid residues 1-188) (Homo sapiens, UniProt P01116, G12V); experiment: KRAS Binding Competition Assay (AlphaScreen; biotinylated KRpep-2d analogue), G12V; conditions: geometric mean, read-out: KRAS GMean IC50 (uM) MUTATION: G12V
T3 construct: G12V-mutant human KRAS (amino acid residues 1-188) with FLAG tag was purified from E. coli; made in house; host or cells: E. coli

IC50 [1] [µM]	IC50 [2] [µM]	IC50 [3] [µM]	SMILES
0.0001 to 10	0.0001 to 10	0.0001 to 10	CN1CCC[C@H]1COc1nc(N2CC3CCC2CN3C(=O)CC2SC(=O)NC2=O)c2ccc(-c3cc(O)cc4ccccc34)c(F)c2n1 (stereo partly drawn) [P-0328, 5-(2-(5-(8-fluoro-7-(3-hydroxynaphthalen-1-yl)-2-(((S)-1-methylpyrrolidin-2-yl)methoxy)quinazolin-4-yl)-2,5-diazabicyclo[2.2.2]octan-2-yl)-2-oxoethyl)thiazolidine-2,4-dione]
0.0001 to 10	0.0001 to 10	0.0001 to 10	O=C(NC1CCNCC1)N1[C@@H]2CC[C@H]1CN(c1nc(OCC34CCCN3CCC4)nc3cc(-c4cc(O)cc5ccccc45)ccc13)C2 [P-0134, (1R,5S)-3-(7-(3-hydroxynaphthalen-1-yl)-2-((tetrahydro-1H-pyrrolizin-7a(5H)-yl)methoxy)quinazolin-4-yl)-N-(piperidin-4-yl)-3,8-diazabicyclo[3.2.1]octane-8-carboxamide]
0.0001 to 10	0.0001 to 10	0.0001 to 10	CN1CCC[C@H]1COc1nc(N2C[C@H]3CC[C@@H](C2)N3C(=O)CC2SC(=O)NC2=O)c2cc(F)c(-c3cc(O)cc4ccccc34)c(F)c2n1 (stereo partly drawn) [P-0463, 5-(2-((1R,5S)-3-(6,8-difluoro-7-(3-hydroxynaphthalen-1-yl)-2-(((S)-1-methylpyrrolidin-2-yl)methoxy)quinazolin-4-yl)-3,8-diazabicyclo[3.2.1]octan-8-yl)-2-oxoethyl)thiazolidine-2,4-dione]
0.0001 to 10	0.0001 to 10	0.0001 to 10	O=C1N[C@@H](CC(=O)N2[C@@H]3CC[C@H]2CN(c2nc(OCC45CCCN4CCC5)nc4c(F)c(-c5cc(O)cc6ccccc56)ccc24)C3)CO1 [P-0414, (S)-4-(2-((1R,5S)-3-(8-fluoro-7-(3-hydroxynaphthalen-1-yl)-2-((tetrahydro-1H-pyrrolizin-7a(5H)-yl)methoxy)quinazolin-4-yl)-3,8-diazabicyclo[3.2.1]octan-8-yl)-2-oxoethyl)oxazolidin-2-one]
0.0001 to 10	0.0001 to 10	0.0001 to 10	O=C1NC(=O)C(CC(=O)N2[C@@H]3CC[C@H]2CN(c2nc(OCC45CCCN4CCC5)nc4c(F)c(-c5cc(O)cc6ccccc56)ccc24)C3)S1 (stereo partly drawn) [P-0299, 5-(2-((1R,5S)-3-(8-fluoro-7-(3-hydroxynaphthalen-1-yl)-2-((tetrahydro-1H-pyrrolizin-7a(5H)-yl)methoxy)quinazolin-4-yl)-3,8-diazabicyclo[3.2.1]octan-8-yl)-2-oxoethyl)thiazolidine-2,4-dione]
0.0001 to 10	0.0001 to 10	0.0001 to 10	NS(=O)(=O)CC(=O)N1[C@@H]2CC[C@H]1CN(c1nc(OCC34CCCN3CCC4)nc3c(F)c(-c4cc(O)cc5ccccc45)ccc13)C2 [P-0352, 2-((1R,5S)-3-(8-fluoro-7-(3-hydroxynaphthalen-1-yl)-2-((tetrahydro-1H-pyrrolizin-7a(5H)-yl)methoxy)quinazolin-4-yl)-3,8-diazabicyclo[3.2.1]octan-8-yl)-2-oxoethane-1-sulfonamide]

Continued, compound first:

SMILES	IC50 [1] [µM]	IC50 [2] [µM]	IC50 [3] [µM]
Oc1cc(-c2ccc3c(N4C[C@H]5CC[C@@H](C4)N5)nc(OCC45CCCN4CCC5)nc3c2)c2ccccc2c1 [P-0002, 4-(4-((1R,5S)-3,8-diazabicyclo[3.2.1]octan-3-yl)-2-((tetrahydro-1H-pyrrolizin-7a(5H)-yl)methoxy)quinazolin-7-yl)naphthalen-2-ol]	0.0001 to 10	0.0001 to 10	0.0001 to 10
CN1CC[C@@H](NC(=O)N2[C@@H]3CC[C@H]2CN(c2nc(OCC45CCCN4CCC5)nc4cc(-c5cc(O)cc6ccccc56)ccc24)C3)C1 [P-0133, (1R,5S)-3-(7-(3-hydroxynaphthalen-1-yl)-2-((tetrahydro-1H-pyrrolizin-7a(5H)-yl)methoxy)quinazolin-4-yl)-N-((R)-1-methylpyrrolidin-3-yl)-3,8-diazabicyclo[3.2.1]octane-8-carboxamide]	0.0001 to 10	0.0001 to 10	0.0001 to 10
CN1CCC[C@H]1COc1nc(N2C[C@H]3CC[C@@H](C2)N3C(=O)CN2CCCC2)c2ccc(-c3cc(O)cc4ccccc34)cc2n1 [P-0118, 1-((1R,5S)-3-(7-(3-hydroxynaphthalen-1-yl)-2-(((S)-1-methylpyrrolidin-2-yl)methoxy)quinazolin-4-yl)-3,8-diazabicyclo[3.2.1]octan-8-yl)-2-(pyrrolidin-1-yl)ethan-1-one]	0.0001 to 10	0.0001 to 10	10 to 100
O=C(c1n[nH]c(=O)[nH]1)N1[C@@H]2CC[C@H]1CN(c1nc(OCC34CCCN3CCC4)nc3cc(-c4cc(O)cc5ccccc45)ccc13)C2 [P-0099, 5-((1R,5S)-3-(7-(3-hydroxynaphthalen-1-yl)-2-((tetrahydro-1H-pyrrolizin-7a(5H)-yl)methoxy)quinazolin-4-yl)-3,8-diazabicyclo[3.2.1]octane-8-carbonyl)-2,4-dihydro-3H-1,2,4-triazol-3-one]	0.0001 to 10	0.0001 to 10	0.0001 to 10
Cc1cccc2cc(O)cc(-c3ccc4c(N5C[C@H]6CC[C@@H](C5)N6)nc(OCC56CCCN5CCC6)nc4c3F)c12 [P-0085, 4-(4-((1R,5S)-3,8-diazabicyclo[3.2.1]octan-3-yl)-8-fluoro-2-((tetrahydro-1H-pyrrolizin-7a(5H)-yl)methoxy)quinazolin-7-yl)-5-methylnaphthalen-2-ol]	0.0001 to 10	0.0001 to 10	0.0001 to 10
O=C(NCC1CCNC1)N1[C@@H]2CC[C@H]1CN(c1nc(OCC34CCCN3CCC4)nc3cc(-c4cc(O)cc5ccccc45)ccc13)C2 (stereo partly drawn) [P-0127, (1R,5S)-3-(7-(3-hydroxynaphthalen-1-yl)-2-((tetrahydro-1H-pyrrolizin-7a(5H)-yl)methoxy)quinazolin-4-yl)-N-(pyrrolidin-3-ylmethyl)-3,8-diazabicyclo[3.2.1]octane-8-carboxamide]	0.0001 to 10	0.0001 to 10	0.0001 to 10
CN1CCC[C@H]1COc1nc(N2C[C@H]3CC[C@@H](C2)N3)c2cc(F)c(-c3cc(O)cc4ccccc34)c(F)c2n1 [P-0009, 4-(4-((1R,5S)-3,8-diazabicyclo[3.2.1]octan-3-yl)-6,8-difluoro-2-(((S)-1-methylpyrrolidin-2-yl)methoxy)quinazolin-7-yl)naphthalen-2-ol]	0.0001 to 10	0.0001 to 10	0.0001 to 10
CC1(NC(=O)N2[C@@H]3CC[C@H]2CN(c2nc(OCC45CCCN4CCC5)nc4cc(-c5cc(O)cc6ccccc56)ccc24)C3)CCNC1 (stereo partly drawn) [P-0124, (1R,5S)-3-(7-(3-hydroxynaphthalen-1-yl)-2-((tetrahydro-1H-pyrrolizin-7a(5H)-yl)methoxy)quinazolin-4-yl)-N-(3-methylpyrrolidin-3-yl)-3,8-diazabicyclo[3.2.1]octane-8-carboxamide]	0.0001 to 10	0.0001 to 10	0.0001 to 10
Oc1cc(-c2c(Cl)cc3c(N4C[C@H]5CC[C@@H](C4)N5)nc(OCC45CCCN4CCC5)nc3c2F)c2ccccc2c1 [P-0034, 4-(4-((1R,5S)-3,8-diazabicyclo[3.2.1]octan-3-yl)-6-chloro-8-fluoro-2-((tetrahydro-1H-pyrrolizin-7a(5H)-yl)methoxy)quinazolin-7-yl)naphthalen-2-ol]	0.0001 to 10	0.0001 to 10	0.0001 to 10
